Results on two compounds are retold here after ChEMBL document CHEMBL1777789, “The square conformation of phenylglycine-incorporated ascidiacyclamide is stabilized by CH/π interactions between amino acid side chains” (2011).

For assay [1], the system named is P388. The assay is described as follows: Cytotoxicity against mouse P388 cells after 72 hrs by MTT assay. It counts as functional. The settings on record: P388, 72 h, read-out: ED50. (Tetrazolium dyes change colour on reduction, which living cells bring about.)
The test system of assay [2] is HL-60. The assay is described as follows: Cytotoxicity against human HL60 cells after 72 hrs by MTT assay. It counts as functional. The settings on record: HL-60, 72 h, read-out: ED50.

Each structure is given as a SMILES string. Values after ≈ are worked out from the molar mass of the structure shown.

Turning to `CC[C@H](C)[C@@H]1NC(=O)c2csc(n2)[C@@H](C(C)C)NC(=O)[C@H]2N=C(O[C@@H]2C)[C@H](c2ccccc2)NC(=O)c2csc(n2)[C@@H](C(C)C)NC(=O)[C@H]2N=C1O[C@@H]2C`, the EC50 in assay [1] stood at 12.4 µg/mL (≈ 16 µM); in assay [2] it was 12.8 µg/mL (≈ 16.5 µM).
With `CC[C@H](C)[C@@H]1NC(=O)c2csc(n2)[C@@H](C(C)C)NC(=O)[C@H]2N=C(O[C@@H]2C)[C@H]([C@@H](C)CC)NC(=O)c2csc(n2)[C@@H](C(C)C)NC(=O)[C@H]2N=C1O[C@@H]2C` [ASCIDIACYCLAMIDE], the values for the EC50 in assay [1] and in assay [2] were 10.5 µg/mL (≈ 13.9 µM) and 33.5 µg/mL (≈ 44.3 µM), respectively.
